According to ChEMBL document CHEMBL5352505, “Targeting MET: Discovery of Small Molecule Inhibitors as Non-Small Cell Lung Cancer Therapy” (J Med Chem, 2023):
pIC50: −log10 of the molar value. One block for each compound: values may come before it.

Columns and labels:
MKN-45 [1] = assay: Antiproliferative activity against human MKN-45 cells assessed as inhibition of cell growth measured after 72 hrs by Cell Titer blue assay; assay type: functional, cell-based; details: MKN-45, 72 h
[2] = target: T1, Hepatocyte growth factor receptor (Homo sapiens, UniProt P08581); assay: Inhibition of human GST tagged c-Met CD expressed in Sf9 cells using poly(Glu:Tyr) as substrate incubated for 5 mins in presence of ATP by horseradish peroxidase based ELISA method
CT26 = assay: Antiproliferative activity against CT26 cells assessed as inhibition of cell growth; assay type: functional, cell-based; details: Mus musculus
[3] = target: T1, Hepatocyte growth factor receptor; assay: Inhibition of MET (unknown origin)
MKN-45 [4] = assay: cells; details: Homo sapiens
EBC-1 [5] = assay: cells; details: Homo sapiens
MKN-45 [6] = assay: Antiproliferative activity against human MKN-45 cells assessed as inhibition of cell growth measured after 72 hrs by CellTiter-Glo assay; assay type: functional, cell-based; details: MKN-45, 72 h
EBC-1 [7] = assay: Antiproliferative activity against human EBC-1 cells assessed as inhibition of cell growth measured after 72 hrs by CellTiter-Glo assay; assay type: functional, cell-based; details: EBC-1, 72 h
[8] = Oral bioavailability in mouse; assay type: ADME, organism-based; details: in vivo
MHCC97H = assay: cells; details: Homo sapiens, 72 h
[9] = Metabolic stability in rat liver microsomes assessed as half life; assay type: ADME, Microsome
[10] = Metabolic stability in mouse liver microsomes assessed as half life; assay type: ADME, Microsome
[11] = Metabolic stability in human liver microsomes assessed as half life; assay type: ADME, Microsome
Hs746T [12] = assay: Antiproliferative activity against human Hs746T cells assessed as inhibition of cell growth measured after 4 days by CellTiter-Glo assay; assay type: functional, cell-based; details: 96 h
EBC-1 [13] = assay: Antiproliferative activity against human EBC-1 cells assessed as inhibition of cell growth measured after 3 days by CellTiter-Glo assay; assay type: functional, cell-based; details: EBC-1, 72 h
Hs746T [14] = assay: cells; details: Homo sapiens
SNU-5 = assay: cells; details: Homo sapiens
GTL 16 cell line = assay: Antiproliferative activity against human GTL 16 cell line assessed as inhibition of cell growth; assay type: functional, cell-based
A549 [15] = assay: Antiproliferative activity against human A549 cells assessed as inhibition of cell growth; assay type: functional, cell-based
NCI-H1993 = assay: Antiproliferative activity against human NCI-H1993 cells assessed as inhibition of cell growth; assay type: functional, cell-based
NCI-H1703 = assay: Antiproliferative activity against human NCI-H1703 cells assessed as inhibition of cell growth; assay type: functional, cell-based
A549 [16] = assay: Antiproliferative activity against human A549 cells assessed as inhibition of cell growth measured after 48 hrs by MTS assay; assay type: functional, cell-based; details: A549, 48 h
NCI-H441 = assay: Antiproliferative activity against human NCI-H441 cells assessed as inhibition of cell growth measured after 48 hrs by MTS assay; assay type: functional, cell-based; details: NCI-H441, 48 h
MKN-45 [17] = assay: Antiproliferative activity against human MKN-45 cells assessed as inhibition of cell growth measured after 48 hrs by MTS assay; assay type: functional, cell-based; details: MKN-45, 48 h
NCI-H460 = assay: Antiproliferative activity against human NCI-H460 cells assessed as inhibition of cell growth measured after 48 hrs by MTS assay; assay type: functional, cell-based; details: NCI-H460, 48 h

- pIC50 (MKN-45 [1]): 6.82
Compound: C[C@@H](Oc1cc(C(=O)Nc2ccc(C(=O)N3CCN(C)CC3)cc2)nnc1N)c1c(Cl)ccc(F)c1Cl

- pIC50 [2]: 8.00
Compound: Cc1[nH]c(/C=C2\C(=O)Nc3ccc(S(=O)(=O)N(C)c4cccc(Cl)c4)cc32)c(C)c1C(=O)N1CCN(C)CC1

- pIC50 (CT26): 7.23
Compound: COc1cc2c(Oc3ccc(-c4cnc(Nc5ccc(F)cc5)n(C)c4=O)nc3)ccnc2cc1OCCCN1CCOCC1

- pIC50 [3]: 8.70
Compound: COc1ccc2c(Oc3ccc(NC(=O)c4c(C)n(CC(C)(C)O)n(-c5ccccc5)c4=O)nc3)ccnc2c1

- pIC50 (MKN-45 [4]): 7.60
- pIC50 (EBC-1 [5]): 7.77
Compound: [2H]c1ccc2cc(C(F)(F)c3nnc4ccc(-c5cnn(C)c5)nn34)ccc2n1

- pIC50 (MKN-45 [6]): 6.17
Compound: Fc1ccc(Cl)c(C2(c3n[nH]c4ncc(-c5cnn(C6CCNCC6)c5)cc34)CC2)c1Cl
- pIC50 (EBC-1 [7]): 5.92

- pIC50 (MKN-45 [4]): 6.53
Compound: C[C@H]1CNC(=O)c2c(N)nn3ccc(nc23)NCc2c(ccc(F)c2C#N)O1

- pIC50 (MKN-45 [4]): 6.60
Compound: CCN1Cc2c(ccc(F)c2C#N)O[C@H](C)CNC(=O)c2c(N)nn3ccc1nc23

- bioavailability [8]: 104%
- pIC50 (MHCC97H): 7.43
Compound: [2H]C([2H])[C@]([2H])(c1cccc(-c2ncc(OCC3CCN(C)CC3)cn2)c1)n1nc(-c2cccc(C#N)c2)ccc1=O

- pIC50 (MHCC97H): 8.06
- half-life [9]: 36.5 min
- half-life [10]: 49.1 min
- half-life [11]: 62.1 min
Compound: C[C@H](c1cccc(-c2ncc(OCC3CCN(C)CC3)cn2)c1)n1cc(-c2cc(C#N)ccn2)cc(F)c1=O

- pIC50 (MKN-45 [6]): 5.83
Compound: [O-][S+](c1c(Cl)ccc(F)c1Cl)c1c[nH]c2ncc(-c3cnn(C4CCNCC4)c3)cc12 (centres undefined)
- pIC50 (EBC-1 [7]): 5.80

- bioavailability [8]: 82.3%
Compound: CC(C)(O)CN1CCC(COc2cnc(-c3cccc(Cn4c(=O)ccn5c6cc(C#N)ccc6nc45)c3)nc2)CC1
- pIC50 (Hs746T [12]): 8.82
- pIC50 (EBC-1 [13]): 8.32

- pIC50 (MKN-45 [4]): 8.50
- pIC50 (Hs746T [14]): 8.70
- pIC50 (SNU-5): 8.36
- pIC50 (EBC-1 [5]): 8.65
Compound: CN1CCN(Cc2ccc(-c3cnc(N4CCOC(Cn5nnc6ncc(-c7cnn(C)c7)nc65)C4)nc3)cc2)CC1 (centres undefined)

Compound: CCOc1ccn(-c2ccc(F)cc2)c(=O)c1C(=O)Nc1ccc(Oc2ccnc(N)c2Cl)c(F)c1 [BMS-777607]
- pIC50 (GTL 16 cell line): 7.00

- pIC50 (MKN-45 [4]): 9.70
- pIC50 (SNU-5): 9.77
Compound: CCN1Cc2c(ccc(F)c2C#N)O[C@@H](C)CNC(=O)c2c(N)nn3ccc1nc23 [ELZOVANTINIB]

- pIC50 (MKN-45 [4]): 7.43
- pIC50 (Hs746T [14]): 7.64
- pIC50 (SNU-5): 8.21
- pIC50 (EBC-1 [5]): 7.62
Compound: CN1CCN(C2CCN(C(=O)Nc3cc(Oc4ccc(NC(=O)C5(C(=O)Nc6ccc(F)cc6)CC5)c(F)c4)ccn3)CC2)CC1 [GOLVATINIB]

- pIC50 (MKN-45 [4]): 7.73
- pIC50 (EBC-1 [5]): 8.08
Compound: Cn1cc(-c2ccc3nnc(C(F)(F)c4ccc5ncccc5c4)n3n2)cn1 [JNJ-38877605]

- pIC50 (A549 [15]): 6.20
- pIC50 (NCI-H1993): 8.03
- pIC50 (NCI-H1703): 7.14
Compound: Cc1ccc(C(=O)Nc2ccc(Oc3cc4cnn(C)c4cc3-c3cn[nH]c3)c(F)c2)c(=O)n1-c1ccc(F)cc1 [MERESTINIB]

- pIC50 (MKN-45 [4]): 8.15
- pIC50 (Hs746T [14]): 6.85
- pIC50 (SNU-5): 7.22
Compound: Cc1c(C(=O)Nc2ccc(Oc3ccnc4cc(OCC(C)(C)O)ccc34)c(F)c2)c(=O)n(-c2ccccc2)n1C [NINGETINIB]

- pIC50 (A549 [16]): 6.23
- pIC50 (NCI-H441): 6.52
- pIC50 (MKN-45 [17]): 6.24
- pIC50 (NCI-H460): 6.22
Compound: O=C1NC(=O)[C@@H](c2cn3c4c(cccc24)CCC3)[C@@H]1c1c[nH]c2ccccc12 [TIVANTINIB]
